Data: patent publication EP0065513B1, “ANTIMYCOTIC SYNERGISTIC PHARMACEUTICAL COMPOSITIONS AND PROCESS FOR THE PREPARATION THEREOF” (CHINOIN Gyogyszer és Vegyészeti Termékek Gyára RT., priority 1980, dated 1982)

How the values were obtained:
Trichomonas vaginalis = assay: In vitro growth inhibition test in liquid nutrient medium; type: cell-based
Description: (§1) Candida albicans and Trichomonas vaginalis strains are cultured in a liquid nutrient medium. Incubation is carried out at 37°C for 48 hours. Each nutrient medium (10 ml) is inoculated with 1000 germs per ml. The number of germs is determined in a Burker chamber. Dilution series are prepared from the stock inoculum by using a physiological sodium chloride solution. To the mixture of the nutrient medium and 0.5 ml a physiological sodium chloride solution 2-methyl-1,4-naphthoquinone, nystatin and mixtures thereof are added.
(§2) The minimal inhibitory concentration of nystatin is determined in the manner disclosed above.
(§3) 1.25 mg/10 ml of 2-methyl-1,4-naphthoquinone is added to an amount of nystatin being the one fiftieth (1/50) part of the minimal inhibitory concentration. Complete inhibition of the growth of Candida albicans and Trichomonas vaginalis was observed.

Candida albicans = assay: as above; type: cell-based
Description: as §1, §2, §3

[1] = tested on: vulvovaginitis candidomycetica; assay: In vivo test: treatment of patients with suppositories; conditions: patients with vulvovaginitis candidomycetica treated with suppositories; number of patients 35
Description: Patients suffering of vulvovaginitis candidomycetica are treated with suppositories according to Example 1. As control suppositories containing no 2-methyl-1,4-naphthoquinone-sodium sulfite adduct but nystatin only are used. Number of patients 35.

[2] = concentration smaller than 5 mg/10 ml
[3] = liquid nutrient medium 10 ml, 1000 germs per ml, 37°C, 48 hours

| Compound | activity at a smaller concentration than the minimal inhibitory concentration (Trichomonas vaginalis; [2]) | minimal inhibitory concentration (Trichomonas vaginalis; [3]) [mg/10 ml] | activity at a smaller concentration than the minimal inhibitory concentration (Candida albicans; [2]) | minimal inhibitory concentration (Candida albicans; [3]) [mg/10 ml] | Recovery, in % of the cases [1] [%] |
| --- | --- | --- | --- | --- | --- |
| CC1=CC(=O)c2ccccc2C1=O [2-methyl-1,4-naphthoquinone] | completely inactive | 5 | completely inactive | 5 | – |
| C[C@@H]1[C@H](O)[C@@H](C)/C=C/C=C/CC/C=C/C=C/C=C/C=C/C(O[C@H]2O[C@H](C)[C@@H](O)[C@H](N)[C@@H]2O)CC2O[C@](O)(CC(O)C(O)CCC(O)CC(O)CC(O)CC(=O)O[C@H]1C)CC(O)C2C(=O)O (some centres unmarked) [Nystatin] | – | – | – | – | 66 |
